In the OligoGym collection:
“And” between values parts separate entries of the source, which are not always exact repeats. Equal entries are not always repeated. After the bases stand the sugars from the 5' end (letter, count) and the backbone: PS all phosphorothioate, else s phosphorothioate and o phosphodiester by linkage. Methylation of C is not given here. e = 2'-O-(2-methoxyethyl) (MOE); k = constrained ethyl (cEt); d = 2'-deoxy (DNA)

Molecular target: IRF4
Conditions: ASO

Sequence	target mRNA inhibition (MM.1R, 1 µM)	target mRNA inhibition (SK-MEL-28, 4 µM) [%]	also measured
CGTGTGCTTGCCAAGC (sugars k3 d10 k3, PS)	67% and 66% and 56%		target mRNA inhibition (MM.1R, 0.0625 µM): -3%; target mRNA inhibition (MM.1R, 0.25 µM): 31%; target mRNA inhibition (MM.1R, 4 µM): 81%
CGTGTGCTTGCCAAGC (sugars kkddddddddddkeke, PS)	55% and 45%		
CGTTCTCCCACACCAG (sugars k3 d10 k3, PS)		48	
CTAAAACTGCGCTCTC (sugars k3 d10 k3, PS)		24	
CTAAAGGAGTGCAGGA (sugars k3 d10 k3, PS)		6	
CTAAATCACCCTGGTC (sugars k3 d10 k3, PS)		47	
CTAATGGTGCTCCTAA (sugars k3 d10 k3, PS)	4%		
CTAATTCCATAGAGCC (sugars k3 d10 k3, PS)	47%	80	target mRNA inhibition (MM.1R, 0.0625 µM): 2%; target mRNA inhibition (MM.1R, 0.074 µM): -13%; target mRNA inhibition (MM.1R, 0.222 µM): -6%; target mRNA inhibition (MM.1R, 0.25 µM): 8%; target mRNA inhibition (MM.1R, 0.666 µM): 4%; target mRNA inhibition (MM.1R, 2 µM): 20%; target mRNA inhibition (MM.1R, 4 µM): 88%
CTACACAGGCTAATCA (sugars k3 d10 k3, PS)	4%		
CTACACTTCCAAGCAA (sugars k3 d10 k3, PS)		-5	
CTACTTCAGCTACATT (sugars k3 d10 k3, PS)		47	
CTAGACAGAGAGTCCG (sugars k3 d10 k3, PS)	5%		
CTAGATTGTAGGACAG (sugars k3 d10 k3, PS)		48	
CTAGGTTTCAGTTGTA (sugars k3 d10 k3, PS)		54	
CTAGTCGCGCAAGTCT (sugars k3 d10 k3, PS)	-4%		
CTAGTTTAAGGGTTAC (sugars k3 d10 k3, PS)		27	
CTATAGTGTTCCAGGA (sugars e1 k2 d9 k2 e2, PS)	8%		
CTATAGTGTTCCAGGA (sugars k2 d9 e3 k2, PS)	34%		
CTATAGTGTTCCAGGA (sugars k3 d10 k3, PS)		66	
CTATAGTGTTCCAGGA (sugars kddddddddddkekek, PS)	34%		
CTATAGTGTTCCAGGA (sugars kkddddddddddkeke, PS)	36%		
CTATAGTGTTCCAGGA (sugars kkkdddddddddkeke, PS)	22%		
CTATCAGGATCTCAAG (sugars k3 d10 k3, PS)		9	
CTATGCTGAACCCCAC (sugars k3 d10 k3, PS)		1	
CTCAATAATCTCCCAG (sugars k3 d10 k3, PS)		53	

Sequence	target mRNA inhibition (MM.1R, 1 µM)	target mRNA inhibition (SK-MEL-28, 4 µM) [%]	also measured
CTCACTATTAAACAGC (sugars k3 d10 k3, PS)		24	
CTCCACAGCAAGGCCT (sugars k3 d10 k3, PS)		51	
CTCCACGCGCGGAGGA (sugars k3 d10 k3, PS)		-1	
CTCCACTACCATATTG (sugars k3 d10 k3, PS)		1	
CTCCACTGTTAAAGCA (sugars k3 d10 k3, PS)		52	
CTCCAGCTTCGGTCGA (sugars k3 d10 k3, PS)	9%		
CTCCGGAGTCAGTGCT (sugars k3 d10 k3, PS)	1%		
CTCCTATGCTGAACCC (sugars k3 d10 k3, PS)	9%		
CTCCTTTTTTGGCTCC (sugars k3 d10 k3, PS)		19	
CTCTAGACAGAGGCCC (sugars k3 d10 k3, PS)		20	
CTCTAGTCAGTGTCAA (sugars k3 d10 k3, PS)		59	
CTCTATAGTGTTCCAG (sugars e1 k2 d9 k2 e2, PS)	59%		target mRNA inhibition (MM.1R, 0.074 µM): 20%; target mRNA inhibition (MM.1R, 0.222 µM): 37%; target mRNA inhibition (MM.1R, 0.666 µM): 53%; target mRNA inhibition (MM.1R, 2 µM): 75%
CTCTATAGTGTTCCAG (sugars k2 d9 e3 k2, PS)	48%		
CTCTATAGTGTTCCAG (sugars kddddddddddkekek, PS)	24%		
CTCTATAGTGTTCCAG (sugars kkdddddddddekeke, PS)	43%		
CTCTCCAGGTGGCTCA (sugars k3 d10 k3, PS)		13	
CTCTCCAGGTGGCTCA (sugars k4 d8 k4, PS)		12	
CTCTTGTGAGGCAAAG (sugars k3 d10 k3, PS)		48	
CTGAAGACAATGTTGT (sugars k3 d10 k3, PS)		55	
CTGAATTGTTACTAAA (sugars k3 d10 k3, PS)		21	
CTGACAAGAACTGCTG (sugars k3 d10 k3, PS)		21	
CTGACTTTAATATTAG (sugars k3 d10 k3, PS)		56	
CTGAGAGCCGAGGCCT (sugars k3 d10 k3, PS)		-17	
CTGAGAGTAAACTTGG (sugars k3 d10 k3, PS)	-1%		
